Results as given in PMC5760719, “Biotransformation of polyunsaturated fatty acids to bioactive hepoxilins and trioxilins by microbial enzymes” (Nature Communications, 2018).

Tests used:
Test in all cases: product formation by HPLC
Format in all cases: biochemical
[1] = biological target: T1, 12-LOX (ARA 12-lipoxygenase, MXAN_1745) (Myxococcus xanthus, UniProt Q1DBH8); details: pathway reaction with purified enzyme; dioxygenation to 12-HpEPE
T1 sequence (Q1DBH8 1-715): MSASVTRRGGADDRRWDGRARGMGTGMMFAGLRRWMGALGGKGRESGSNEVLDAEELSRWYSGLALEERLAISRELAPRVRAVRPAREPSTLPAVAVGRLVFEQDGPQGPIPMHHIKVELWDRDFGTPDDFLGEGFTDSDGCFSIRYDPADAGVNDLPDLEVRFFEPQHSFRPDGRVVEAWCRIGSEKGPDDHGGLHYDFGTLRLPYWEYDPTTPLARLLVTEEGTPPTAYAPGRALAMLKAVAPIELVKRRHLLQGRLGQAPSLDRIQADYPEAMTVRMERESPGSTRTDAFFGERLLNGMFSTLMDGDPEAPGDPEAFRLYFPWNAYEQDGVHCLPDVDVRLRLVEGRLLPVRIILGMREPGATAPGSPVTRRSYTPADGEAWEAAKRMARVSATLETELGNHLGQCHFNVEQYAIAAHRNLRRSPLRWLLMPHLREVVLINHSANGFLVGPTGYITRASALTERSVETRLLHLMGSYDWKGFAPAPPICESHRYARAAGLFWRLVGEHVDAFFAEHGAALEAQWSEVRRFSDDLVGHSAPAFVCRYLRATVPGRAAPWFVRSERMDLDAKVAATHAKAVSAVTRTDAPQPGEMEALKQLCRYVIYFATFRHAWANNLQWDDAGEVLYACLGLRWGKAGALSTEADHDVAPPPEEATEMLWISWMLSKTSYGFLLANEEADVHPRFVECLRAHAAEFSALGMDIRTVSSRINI

[2] = biological target: T2, 11-LOX (ARA 11-lipoxygenase, MXAN_1744) (Myxococcus xanthus, UniProt Q1DBH9); details: pathway reaction with purified enzyme; dioxygenation to 11-HpEPE
T2 sequence (Q1DBH9 1-675): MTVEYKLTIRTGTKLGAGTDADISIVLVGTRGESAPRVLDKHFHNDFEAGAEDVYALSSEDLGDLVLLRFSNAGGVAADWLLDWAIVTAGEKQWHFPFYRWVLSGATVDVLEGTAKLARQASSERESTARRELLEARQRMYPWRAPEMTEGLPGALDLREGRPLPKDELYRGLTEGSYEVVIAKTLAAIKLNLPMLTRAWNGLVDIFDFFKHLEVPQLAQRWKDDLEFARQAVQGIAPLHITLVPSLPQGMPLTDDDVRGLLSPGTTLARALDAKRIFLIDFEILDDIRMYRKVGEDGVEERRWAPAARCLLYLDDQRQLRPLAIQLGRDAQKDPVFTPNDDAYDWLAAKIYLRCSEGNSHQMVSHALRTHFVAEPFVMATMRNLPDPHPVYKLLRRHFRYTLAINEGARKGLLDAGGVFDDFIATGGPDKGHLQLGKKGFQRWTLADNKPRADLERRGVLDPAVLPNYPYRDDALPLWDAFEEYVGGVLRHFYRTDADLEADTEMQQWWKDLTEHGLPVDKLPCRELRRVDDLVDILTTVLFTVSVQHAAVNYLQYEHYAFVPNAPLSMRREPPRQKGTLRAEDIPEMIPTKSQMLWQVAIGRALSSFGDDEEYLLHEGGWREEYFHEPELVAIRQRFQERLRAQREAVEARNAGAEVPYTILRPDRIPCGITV

[3] = biological target: T3, EH (epoxide hydrolase, MXAN_1644) (Myxococcus xanthus, UniProt Q1DBS7); details: pathway reaction with purified enzymes; HXD3 formed by 11-LOX, hydrolysis to TrXD3
T3 sequence (Q1DBS7 1-318): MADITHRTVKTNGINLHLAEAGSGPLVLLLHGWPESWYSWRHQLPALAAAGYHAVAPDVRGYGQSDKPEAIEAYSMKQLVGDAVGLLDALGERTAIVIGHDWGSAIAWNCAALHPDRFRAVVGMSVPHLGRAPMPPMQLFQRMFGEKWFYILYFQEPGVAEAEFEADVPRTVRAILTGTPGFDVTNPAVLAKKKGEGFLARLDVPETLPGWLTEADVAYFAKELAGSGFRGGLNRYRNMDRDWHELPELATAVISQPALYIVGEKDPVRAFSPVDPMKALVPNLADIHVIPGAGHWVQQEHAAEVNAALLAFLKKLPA

Compound	product formation by HPLC [1]	product formation by HPLC [2]	product formation by HPLC [3]
CC/C=C\C/C=C\C/C=C\C/C=C\C/C=C\CCCC(=O)O [EPA, eicosapentaenoic acid]	12-LOX and 11-LOX converted EPA to 12-hydroperoxypentaenoic acid (HpEPE) and 11-HpEPE, respectively	12-LOX and 11-LOX converted EPA to 12-hydroperoxypentaenoic acid (HpEPE) and 11-HpEPE, respectively	–
CCCCC/C=C\C(O)C1OC1C/C=C\C/C=C\CCCC(=O)O (stereo not drawn) [HXD3]	–	–	HXB3 and HxD3, respectively, which were then converted to TrXB3 and TrXD3, respectively, by EH
